Measurements from patent publication US20070293486A1, “Alpha-Keto Carbonyl Calpain Inhibitors” (SANTHERA PHARMACEUTICALS (SCHWEIZ) AG, priority 2004, published 2007).

Assays:
mdx mouse = assay: Longterm treatment of mdx mice (muscle histology); type: in vivo; conditions: for adverse effects upon longterm treatment: longterm treatment every 2nd day i.p.
Description: The mdx mouse is a well established animal model for Duchenne Muscular Dystrophy (Bulfield G., Siller W. G., Wight P. A., Moore K. J., X chromosome-linked muscular dystrophy (mdx) in the mouse, Proc. Natl. Acad. Sci. USA., 1984, 81(4), 1189-1192). Selected compounds were tested in longterm treatments of mdx mice, according to the procedures described below.
Mouse strains: C57BL/10scsn and C57BL/10scsn mdx mouse strains were purchased at The Jackson Laboratory (ME, USA) and bred inhouse. Mouse males were sacrificed at the age of 3 or 7 weeks by CO2 asphyxiation.
Treatment: Compounds were dissolved in 50% PEG, 50% saline solution and applied by i.p. injection.
Histology: Tibialis anterior (TA), quadriceps (Quad), and diaphragm (Dia) muscles were collected and mounted on cork supports using gum tragacanth (Sigma-Aldrich, Germany). The samples were snap-frozen in melting isopentane and stored at −80° C. 12 μm thick cryosections of the mid-belly region of muscles were prepared. For staining, sections were air dried and fixed with 4% PFA in PBS for 5 minutes, washed 3 times with PBS and incubated over night at 4° C. in PBS containing 2 μg/ml Alexa Fluor ™ 488 conjugated wheat-germ agglutinin (WGA-Alexa, Molecular Probes, Eugene, Oreg., USA) to stain membrane-bound and extracellular epitopes and 1 μg/ml 4′,6-diamidino-2-phenylindole (DAPI; Molecular Probes) to stain nuclei.
Image acquisition and analysis: Fluorescence microscopy images of both labels were acquired using a digital camera (ColorView II, Soft Imaging System, Münster, Germany) coupled to a fluorescence microscope (Vanox S, Olympus, Tokyo, Japan). Combination of these two stainings to a composite image, assembling of several images to a complete image of the entire muscle cross-section and further semi-automated analysis was performed using the image analysis program AnalySIS (Soft Imaging System). Image analysis of 1200-2900 muscle fibers in each section was performed in three steps: 1) determination of the muscle fiber boundaries, 2) determination of the muscle fiber size, and 3) determination of the percentage of muscle fibers containing centralized nuclei. Six different geometrical parameters were tested for the determination of the muscle fiber size: (a) the “minimal feret” (the minimum distance of parallel tangents at opposing borders of the muscle fiber), (b) the “area”, (c) the “minimal inner diameter” (the minimum diameter through the center of the muscle fiber), (d) the “minimal diameter” (the minimum diameter of a muscle fiber for angles in the range 0° through 179° with step width 1°, (e) the “minimal outer diameter” (the minimum diameter through the muscle fiber from outer border to outer border), and (f) the “perimeter”. The variance coefficient of the muscle fiber size is defined as follows: variance coefficient=(standard deviation of the muscle fiber size/mean of the muscle fiber size of the section)*[…]. For statistical analysis of different variance coefficient values Mann-Whitney U test was used.

[1] = system: Primary fibroblasts from donors with Friedreich Ataxia (FRDA); assay: BSO Assay (cell viability under BSO-induced oxidative stress); type: cell-based; conditions: Homo sapiens, Fibroblast
Description: Primary fibroblasts were derived from donors with molecular diagnosis for Friedreich Ataxia (FRDA) and control donors with no mitochondrial disease. Cell lines were obtained from Coriell Cell Repositories (Camden, N.J.; catalog numbers GM04078, GM08402 and GM08399 respectively). All cell types were diagnosed on the molecular level for intronic […] triplet repeat length of at least 400-450 repeats using a PCR-based method. […] Cell viability was measured after the first signs of toxicity appeared in the BSO-treated controls (typically after 16 to 48 h). […] Fluorescence intensity was measured with a Gemini Spectramax XS spectrofluorimeter (Molecular Devices, Sunnyvale, Calif.) using excitation and emission wavelengths of 485 nm and 525 nm respectively.

[2] = system: utrophin protein levels in human DMD myotubes; assay: Utrophin Expression Assay in Human Myotubes; type: cell-based; conditions: 50 nM test compound
Description: Utrophin induction was determined by a method which was similar to a method of 1. Courdier-Fruh et al., Neuromuscular Disord., 2002, 12, S95-S104. Primary human muscle cell cultures were prepared from muscle biopsies taken during orthopedic surgery from Duchenne patients (provided by the Association Francaise contre les Myopathies). Cultures were prepared and maintained according to standard protocols. Induction of utrophin expression in human DMD myotubes was assayed at 50 nM or 500 nM of test compound added in differentiation medium. Normalized utrophin protein levels are determined after 56 d of incubation by cell-based ELISA with a mouse monoclonal antibody to the aminoterminal portion of utrophin (NCL-DRP2, Novocastra Laboratories). For calibration, the cell density and differentiation was determined by absorbance measurements of the total dehydrogenase enzyme activity in each well using the calorimetric CellTiter 96®AQ One Solution Reagent Proliferation Assay (Promega) according to the manufacturer's recommendation. Subsequently, cells were fixed, washed, permeabilized with 0.5% (v/v) Triton X-100 and unspecific antibody binding-sites blocked by standard procedures. Utrophin protein levels were determined immunologically with utrophin-specific primary antibody and with an appropriate peroxidase-coupled secondary antibody (Jackson ImmunoResearch Laboratories) using QuantaBlu™ Fluorogenic Peroxidase Substrate Kit (Pierce) for detection. Fluorescence measurements were carried out with a multilabel counter (Wallac) at λex=355 nm and at λem=460 nm. The primary readout of this signal is presented in arbitrary units. For calibration, the arbitrary units representing the relative utrophin protein content of each well was divided by the corresponding cell-titer absorbance value to correct for cell density. For comparison between experiments, the cell-titer corrected readout for utrophin protein content in each well was expressed in percent of solvent treated control cultures (set to 100%), i.e. data are % utrophin protein levels compared to DMSO solvent (N=4).

[3] = 20 mg/kg every 2nd day i.p., 3 week old mice, 4 weeks treatment, diaphragm, vs vehicle mdx controls

Row | melting point | SMILES | decrease in the variance coefficient of the muscle fiber size in the Dia (mdx mouse; [3]) | adverse effects upon longterm treatment (mdx mouse) | EC50 [1] | UTR Induction @50 nM [2] | decrease in the variance coefficient of the muscle fiber size in the Dia (mdx mouse; 2 mg/kg every 2nd day i.p., diaphragm, vs vehicle mdx controls) | reduction of the percentage of centralized nuclei in the Dia (mdx mouse; 20 mg/kg every 2nd day i.p., diaphragm, vs vehicle mdx controls) | decrease in the variance coefficient of the muscle fiber size in the Quad (mdx mouse; 20 mg/kg every 2nd day i.p., quadriceps, vs vehicle mdx controls)
1 | – | CCNC(=O)C(=O)[C@H](Cc1ccc(Cl)cc1)NC(=O)[C@@H](NC(=O)[C@H](Cc1ccccc1)NC(=O)CCCCC1CCS[S+]1[O-])C(C)C (stereo partly shown) [Example 2] | 26% | No prominent adverse effects | 800 nM | – | – | – | –
2 | 188 to 190 °C | CCNC(=O)C(=O)C(Cc1ccc(OC)cc1)NC(=O)C(CC(C)C)NC(=O)C(Cc1cccc2ccccc12)NC(=O)CCCCC1CCSS1 (stereo not shown) [Example 637] | 34% | No prominent adverse effects | – | 121% | 33% | 34% | 32%
